For one test, the system named is ES-2. Description: Antiproliferative activity against human ES2 cells assessed as cell growth inhibition incubated for 72 hrs by Celltiter-Glo assay. It is filed as functional, cell-based. Particulars: ES-2, 72 h.
A short description of test [1]: Antiproliferative activity against human KM12-Luc cells assessed as cell growth inhibition incubated for 72 hrs by Celltiter-Glo assay. The class given is functional, cell-based. Background: ATP-based viability assays read luminescence as a measure of living cells.
For another test, the system named is MFE-280. Description: Antiproliferative activity against human MFE-280 cells assessed as cell growth inhibition incubated for 72 hrs by Celltiter-Glo assay. It is filed as functional, cell-based. Particulars: MFE-280, 72 h.
A further test relates to COLO-678. As to the kind of experiment: Antiproliferative activity against human COLO-678 cells assessed as cell growth inhibition incubated for 72 hrs by Celltiter-Glo assay. It is filed as functional, cell-based. Particulars: COLO-678, 72 h.
Test [2] concerns BT-474. Description: Antitumor activity against human BT-474 cells xenografted in BALB/c nude mouse assessed as tumor growth inhibition at 20 mg/kg/day, po administered once daily for 21 days relative to control. It is filed as functional. Particulars: BT-474, 504 h, time 21 day, read-out: TGI.
Test [3] concerns NCI-N87. Description: Antiproliferative activity against human NCI-N87 cells assessed as inhibition of cell growth incubated for 72 hrs by Celltiter-Glo assay. The class given is functional, cell-based. Particulars: NCI-N87, 72 h.
For test [4], the system named is BaF3. As to the kind of experiment: Antitumor activity against mouse BaF3 cells harbouring HER2 A775_G776insYVMA mutant xenografted in BALB/c nude mouse assessed as tumor growth inhibition at 20 mg/kg, po qd measured for 13 days relative to control. It is filed as functional. Particulars: BaF3, 312 h, time 13 day, read-out: TGI.
Test [5] deals with NCI-N87. Description: Antitumor activity against human NCI-N87 cells xenografted in BALB/c nude mouse assessed as tumor growth inhibition at 20 mg/kg/day, po administered once daily for 21 days relative to control. The class given is functional. Particulars: NCI-N87, 504 h, time 21 day, read-out: TGI. (In general: Xenograft models place foreign cells or tissue in a host animal.)

Test [6] relates to BT-474. As to the kind of experiment: Antiproliferative activity against human BT-474 cells assessed as inhibition of cell growth incubated for 72 hrs by Celltiter-Glo assay. It is filed as functional, cell-based. Particulars: BT-474, 72 h.
A further test has as its system NCI-H441. Description: Antiproliferative activity against human NCI-H441 cells assessed as cell growth inhibition incubated for 72 hrs by Celltiter-Glo assay. Particulars: NCI-H441, 72 h. It is filed as functional, cell-based.
The next test concerns MDA-MB-468. As to the kind of experiment: Antiproliferative activity against human MDA-MB-468 cells overexpressing wild type EGFR assessed as cell growth inhibition incubated for 72 hrs by Celltiter-Glo assay. The class given is functional, cell-based. Particulars: MDA-MB-468, 72 h.
The test system of a further test is SK-BR-3. As to the kind of experiment: Antiproliferative activity against human SK-BR-3 cells overexpressing wild type HER2 assessed as cell growth inhibition incubated for 72 hrs by Celltiter-Glo assay. The class given is functional, cell-based. Particulars: SK-BR-3, 72 h.
Another test deals with NUGC-4. Description: Antiproliferative activity against human NUGC-4 cells assessed as cell growth inhibition incubated for 72 hrs by Celltiter-Glo assay. It is filed as functional, cell-based. Particulars: NUGC-4, 72 h.
In test [7] the target is Receptor tyrosine-protein kinase erbB-2 (Homo sapiens, UniProt P04626, R896C). Description: Inhibition of HER2 R896C mutant (unknown origin) incubated for 120 mins in presence of 33P-ATP by P81 ion exchange cellulose chromatography.
Test [8] addresses Receptor tyrosine-protein kinase erbB-2 (Homo sapiens, UniProt P04626, V777L). Description: Inhibition of HER2 V777L mutant (unknown origin) incubated for 120 mins in presence of 33P-ATP by P81 ion exchange cellulose chromatography.
The target in test [9] is Receptor tyrosine-protein kinase erbB-2 (Homo sapiens, UniProt P04626, D769Y). As to the kind of experiment: Inhibition of HER2 D769Y mutant (unknown origin) incubated for 120 mins in presence of 33P-ATP by P81 ion exchange cellulose chromatography.
Test [10] has as its target Receptor tyrosine-protein kinase erbB-2 (Homo sapiens, UniProt P04626, D769H). Description: Inhibition of HER2 D769H mutant (unknown origin) incubated for 120 mins in presence of 33P-ATP by P81 ion exchange cellulose chromatography.
Test [11] concerns the target T1, Receptor tyrosine-protein kinase erbB-2 (Homo sapiens, UniProt P04626). Description: Inhibition of HER2 (unknown origin).
Test [12] addresses T1, Receptor tyrosine-protein kinase erbB-2. Description: Inhibition of wild type human GST-tagged HER2 (676 to end residues) expressed in baculovirus infected Sf9 cells incubated for 30 mins in presence of ATP by HTRF analysis.
The test system of test [13] is BaF3. Description: Antiproliferative activity against mouse BaF3 cells harbouring HER2 […] mutant assessed as inhibition of cell growth incubated for 72 hrs by Celltiter-Glo assay. It is filed as functional, cell-based. Particulars: BaF3, 72 h.
For test [14], the target named is Epidermal growth factor receptor (Homo sapiens, UniProt P00533). Description: Inhibition of EGFR (unknown origin).

The IC50 is the midpoint of a concentration-inhibition curve.

T1 sequence (P04626 whole entry): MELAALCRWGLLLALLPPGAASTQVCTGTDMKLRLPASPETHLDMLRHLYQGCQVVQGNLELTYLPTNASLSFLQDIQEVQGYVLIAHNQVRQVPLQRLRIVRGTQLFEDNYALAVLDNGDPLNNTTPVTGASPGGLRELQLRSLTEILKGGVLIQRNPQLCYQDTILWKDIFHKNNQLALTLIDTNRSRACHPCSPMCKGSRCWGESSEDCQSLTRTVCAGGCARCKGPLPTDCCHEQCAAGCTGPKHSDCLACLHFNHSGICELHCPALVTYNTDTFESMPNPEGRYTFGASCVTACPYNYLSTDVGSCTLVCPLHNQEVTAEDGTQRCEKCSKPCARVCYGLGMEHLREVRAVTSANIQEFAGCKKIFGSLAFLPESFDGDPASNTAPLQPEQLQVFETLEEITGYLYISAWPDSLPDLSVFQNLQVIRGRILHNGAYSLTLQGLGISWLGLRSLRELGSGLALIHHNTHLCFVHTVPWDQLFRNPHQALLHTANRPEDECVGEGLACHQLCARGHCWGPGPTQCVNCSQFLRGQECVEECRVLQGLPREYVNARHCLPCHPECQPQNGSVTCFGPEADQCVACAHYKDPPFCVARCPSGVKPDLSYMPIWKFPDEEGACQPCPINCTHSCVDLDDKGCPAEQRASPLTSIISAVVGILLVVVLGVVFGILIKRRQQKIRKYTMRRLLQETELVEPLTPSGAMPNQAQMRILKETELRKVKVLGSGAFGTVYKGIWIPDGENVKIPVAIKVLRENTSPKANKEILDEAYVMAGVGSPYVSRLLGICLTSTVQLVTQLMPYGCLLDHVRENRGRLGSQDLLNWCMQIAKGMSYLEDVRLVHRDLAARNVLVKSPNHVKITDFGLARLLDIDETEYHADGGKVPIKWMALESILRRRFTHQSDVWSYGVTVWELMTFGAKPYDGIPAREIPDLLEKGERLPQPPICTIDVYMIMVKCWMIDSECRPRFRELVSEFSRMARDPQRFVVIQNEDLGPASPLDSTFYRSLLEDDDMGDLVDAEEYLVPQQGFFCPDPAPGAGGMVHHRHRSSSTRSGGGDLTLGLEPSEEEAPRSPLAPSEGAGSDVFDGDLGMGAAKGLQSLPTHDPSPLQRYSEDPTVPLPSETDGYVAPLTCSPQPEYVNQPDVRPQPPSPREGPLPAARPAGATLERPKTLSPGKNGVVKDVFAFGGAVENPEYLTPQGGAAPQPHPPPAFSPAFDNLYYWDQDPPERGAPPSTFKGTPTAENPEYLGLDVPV
Chain of Epidermal growth factor receptor (P00533 whole entry): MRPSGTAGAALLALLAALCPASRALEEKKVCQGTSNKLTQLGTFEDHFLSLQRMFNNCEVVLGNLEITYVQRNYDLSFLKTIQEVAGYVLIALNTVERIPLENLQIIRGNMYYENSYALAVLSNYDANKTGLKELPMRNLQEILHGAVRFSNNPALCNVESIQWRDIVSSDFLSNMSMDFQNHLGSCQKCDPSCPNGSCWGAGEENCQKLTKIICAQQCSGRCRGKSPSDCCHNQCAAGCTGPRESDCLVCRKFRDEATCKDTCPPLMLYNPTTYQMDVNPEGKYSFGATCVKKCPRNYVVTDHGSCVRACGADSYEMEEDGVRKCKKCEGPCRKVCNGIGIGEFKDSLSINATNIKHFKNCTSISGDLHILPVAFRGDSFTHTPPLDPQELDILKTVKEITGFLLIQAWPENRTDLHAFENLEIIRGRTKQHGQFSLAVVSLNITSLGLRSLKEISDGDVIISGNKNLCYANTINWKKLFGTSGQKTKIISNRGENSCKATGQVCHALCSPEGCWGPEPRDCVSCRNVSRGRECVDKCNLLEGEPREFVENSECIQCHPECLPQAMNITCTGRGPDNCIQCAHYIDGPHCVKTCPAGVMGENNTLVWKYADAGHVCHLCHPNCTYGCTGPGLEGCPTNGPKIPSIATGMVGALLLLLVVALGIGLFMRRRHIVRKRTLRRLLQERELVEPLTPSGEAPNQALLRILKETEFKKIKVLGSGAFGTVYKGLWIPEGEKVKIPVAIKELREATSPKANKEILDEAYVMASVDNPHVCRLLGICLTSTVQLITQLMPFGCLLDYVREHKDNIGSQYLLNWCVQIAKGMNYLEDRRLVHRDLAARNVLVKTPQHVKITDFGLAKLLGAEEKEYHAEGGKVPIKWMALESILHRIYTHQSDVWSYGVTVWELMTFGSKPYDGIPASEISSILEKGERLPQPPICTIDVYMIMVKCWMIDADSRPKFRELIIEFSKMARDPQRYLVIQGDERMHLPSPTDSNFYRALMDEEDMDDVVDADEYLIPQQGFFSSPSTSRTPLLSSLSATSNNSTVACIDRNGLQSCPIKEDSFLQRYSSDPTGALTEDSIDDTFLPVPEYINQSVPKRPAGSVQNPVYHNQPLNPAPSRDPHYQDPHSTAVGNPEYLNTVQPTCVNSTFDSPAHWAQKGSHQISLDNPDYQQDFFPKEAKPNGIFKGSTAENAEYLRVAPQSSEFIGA
Chain of Receptor tyrosine-protein kinase erbB-2 (Homo sapiens, UniProt P04626, R896C) (P04626 23-1255 R896C limits assumed): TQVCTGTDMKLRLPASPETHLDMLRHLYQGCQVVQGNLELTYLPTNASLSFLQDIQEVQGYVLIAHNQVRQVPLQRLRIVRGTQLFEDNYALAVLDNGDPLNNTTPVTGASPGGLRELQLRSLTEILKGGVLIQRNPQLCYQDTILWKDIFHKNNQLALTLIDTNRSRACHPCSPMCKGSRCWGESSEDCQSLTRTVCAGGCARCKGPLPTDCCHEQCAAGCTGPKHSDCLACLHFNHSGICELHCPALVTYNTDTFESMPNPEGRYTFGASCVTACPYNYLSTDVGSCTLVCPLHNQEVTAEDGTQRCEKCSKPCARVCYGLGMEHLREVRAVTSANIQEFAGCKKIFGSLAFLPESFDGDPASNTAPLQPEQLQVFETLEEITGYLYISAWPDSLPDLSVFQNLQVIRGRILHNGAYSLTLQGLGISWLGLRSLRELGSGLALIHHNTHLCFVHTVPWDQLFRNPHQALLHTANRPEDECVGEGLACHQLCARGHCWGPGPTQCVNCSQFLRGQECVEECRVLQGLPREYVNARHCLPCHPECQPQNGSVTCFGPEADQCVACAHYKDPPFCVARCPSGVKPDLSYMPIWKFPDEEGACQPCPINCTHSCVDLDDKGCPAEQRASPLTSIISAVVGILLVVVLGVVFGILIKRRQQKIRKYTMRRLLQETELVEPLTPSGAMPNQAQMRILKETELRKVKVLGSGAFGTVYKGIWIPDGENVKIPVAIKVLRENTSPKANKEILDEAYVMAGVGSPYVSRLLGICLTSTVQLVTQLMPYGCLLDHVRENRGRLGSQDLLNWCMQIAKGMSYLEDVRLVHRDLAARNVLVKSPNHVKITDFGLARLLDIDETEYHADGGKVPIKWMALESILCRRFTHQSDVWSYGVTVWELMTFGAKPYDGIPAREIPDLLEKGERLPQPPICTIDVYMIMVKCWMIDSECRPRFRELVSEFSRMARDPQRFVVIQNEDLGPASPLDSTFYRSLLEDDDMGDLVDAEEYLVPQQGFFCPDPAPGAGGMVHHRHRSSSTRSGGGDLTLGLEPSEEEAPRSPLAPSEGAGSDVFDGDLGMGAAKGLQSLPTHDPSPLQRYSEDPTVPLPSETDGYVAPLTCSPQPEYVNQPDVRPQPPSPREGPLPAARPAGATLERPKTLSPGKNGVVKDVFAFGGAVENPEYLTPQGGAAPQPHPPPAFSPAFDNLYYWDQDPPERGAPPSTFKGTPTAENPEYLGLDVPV
Chain of Receptor tyrosine-protein kinase erbB-2 (Homo sapiens, UniProt P04626, V777L) (P04626 23-1255 V777L limits assumed): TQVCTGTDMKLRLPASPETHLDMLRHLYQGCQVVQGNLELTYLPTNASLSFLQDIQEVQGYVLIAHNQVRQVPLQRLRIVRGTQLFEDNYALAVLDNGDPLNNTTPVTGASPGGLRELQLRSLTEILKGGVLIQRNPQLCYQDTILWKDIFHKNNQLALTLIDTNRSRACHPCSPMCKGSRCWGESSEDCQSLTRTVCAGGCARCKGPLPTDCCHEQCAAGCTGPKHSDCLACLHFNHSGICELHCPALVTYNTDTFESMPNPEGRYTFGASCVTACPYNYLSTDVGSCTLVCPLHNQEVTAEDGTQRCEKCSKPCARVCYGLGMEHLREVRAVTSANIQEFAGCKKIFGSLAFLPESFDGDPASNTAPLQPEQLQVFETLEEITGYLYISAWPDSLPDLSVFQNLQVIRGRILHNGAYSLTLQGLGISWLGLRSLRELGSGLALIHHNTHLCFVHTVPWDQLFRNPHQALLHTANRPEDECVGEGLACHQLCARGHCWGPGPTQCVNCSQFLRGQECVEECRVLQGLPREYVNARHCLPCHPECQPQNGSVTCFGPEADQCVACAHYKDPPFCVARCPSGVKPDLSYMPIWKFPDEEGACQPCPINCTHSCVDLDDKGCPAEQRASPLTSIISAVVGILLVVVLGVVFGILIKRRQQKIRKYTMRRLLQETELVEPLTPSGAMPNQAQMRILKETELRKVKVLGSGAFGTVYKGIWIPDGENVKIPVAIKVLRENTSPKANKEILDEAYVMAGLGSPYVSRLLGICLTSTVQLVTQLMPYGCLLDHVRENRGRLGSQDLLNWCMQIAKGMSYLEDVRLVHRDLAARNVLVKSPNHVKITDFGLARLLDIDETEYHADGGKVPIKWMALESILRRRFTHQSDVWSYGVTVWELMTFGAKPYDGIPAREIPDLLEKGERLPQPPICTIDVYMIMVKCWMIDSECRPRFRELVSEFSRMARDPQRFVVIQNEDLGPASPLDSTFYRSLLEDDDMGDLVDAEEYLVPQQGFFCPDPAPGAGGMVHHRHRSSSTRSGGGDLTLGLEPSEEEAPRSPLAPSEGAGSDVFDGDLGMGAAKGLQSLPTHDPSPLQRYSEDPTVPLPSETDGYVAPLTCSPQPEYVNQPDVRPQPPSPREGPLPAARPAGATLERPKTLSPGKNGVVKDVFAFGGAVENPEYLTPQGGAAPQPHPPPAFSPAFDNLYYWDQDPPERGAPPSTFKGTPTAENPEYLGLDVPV

Take `CCOc1cc2ncc(C#N)c(Nc3ccc(OCc4ccccn4)c(Cl)c3)c2cc1NC(=O)/C=C/CN(C)C` [NERATINIB]: the IC50 with ES-2 amounted to 788 nM; in test [1], 1730 nM; in the test on MFE-280 it was 1290 nM; in the test with COLO-678, 694 nM; with NCI-N87 [3], 0.64 nM; in the test on BT-474 [6], 2.06 nM. Moreover, the IC50 in the test with NCI-H441 was determined as 1280 nM; with MDA-MB-468, 406 nM; in the test on SK-BR-3 it was 10.3 nM; in the test with NUGC-4 it was 38.1 nM. Besides, the inhibition in vivo at 20 mg/kg/day with BT-474 [2] worked out at 119%; in the test with NCI-N87 [5], 112%. Further, the inhibition in vivo at 20 mg/kg in the test with BaF3 [4] was determined as 56%.

In the case of `CCOc1cc2ncc(C#N)c(Nc3ccc(OCc4ccccn4)c(Cl)c3)c2cc1NC(=O)/C=C/[C@H]1CCCN1C` [PYROTINIB], the IC50 in test [7] was determined as 2.4 nM; in the test on ES-2, 778 nM; in test [1] it was 1690 nM; with MFE-280 it was 1560 nM; with COLO-678 it was 1840 nM; in test [8] it was 3.91 nM. Moreover, the IC50 in test [9] turned out to be 57.4 nM; in [10] it was 6.65 nM; in the test on NCI-N87 [3], 0.85 nM; in the test on BT-474 [6], 3.97 nM; with NCI-H441, 1890 nM; in test [11] it was 4.43 nM. In addition, the IC50 was 9.07 nM in test [12]; 659 nM in the test on MDA-MB-468; 14 nM in the test on SK-BR-3; 15 nM with BaF3 [13]; 60.8 nM in the test with NUGC-4. Besides, the inhibition in vivo at 20 mg/kg/day with BT-474 [2] turned out to be 118%; in the test with NCI-N87 [5], 113%. The inhibition in vivo at 20 mg/kg in the test with BaF3 [4] was 55%.

Consider `Cc1cc(Nc2ncnc3ccc(NC4=NC(C)(C)CO4)cc23)ccc1Oc1ccn2ncnc2c1` [TUCATINIB], for which the IC50 came to 449 nM in test [14] and 6.9 nM in test [11].
